Experimental data from the supplement of paper PMC5908809.

Columns and labels:
[1] = tested on: normal NK cells expanded with K562-aAPC; assay: percent inhibition of viability; higher = more inhibition; conditions: 72 h, IL-2 2.5 ng/mL
Protocol: (§1)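 Drug sensitivity and resistance testing on K562-aAPC-expanded normal NK cells: 5 concentrations (10-fold steps over a 10,000-fold range), 72 h at 37 °C, viability by CellTiter-Glo normalised to DMSO and benzethonium chloride controls; DSS from the fitted curve.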

[2] = tested on: DERL-7 (IL-2 2.5 ng/mL); assay: as above; conditions: 72 h
[3] = tested on: IMC-1 (IL-2 20 ng/mL); assay: as above; conditions: 72 h
[4] = tested on: KAI3 (IL-2 2.5 ng/mL); assay: as above; conditions: 72 h
[5] = tested on: KHYG-1 (IL-2 2.5 ng/mL); assay: as above; conditions: 72 h
[6] = tested on: NK-92 (IL-2 2.5 ng/mL); assay: as above; conditions: 72 h
[7] = tested on: NK-YS (IL-2 2.5 ng/mL); assay: as above; conditions: 72 h
[8] = tested on: NKL (IL-2 2.5 ng/mL); assay: as above; conditions: 72 h
[9] = tested on: SNK-6 (IL-2 2.5 ng/mL); assay: as above; conditions: 72 h
[10] = tested on: YT (IL-2 2.5 ng/mL); assay: as above; conditions: 72 h
[11] = tested on: normal primary NK cells, pool 1 (3 donors) (IL-2 2.5 ng/mL); assay: as above; conditions: 72 h
[12] = tested on: normal primary NK cells, pool 1 (3 donors), resting (IL-2 0 ng/mL); assay: as above; conditions: 72 h
[13] = tested on: normal primary NK cells, pool 2 (3 donors) (IL-2 2.5 ng/mL); assay: as above; conditions: 72 h
[14] = tested on: normal primary NK cells, pool 3 (3 donors) (IL-2 2.5 ng/mL); assay: as above; conditions: 72 h
[15] = tested on: normal NK cells expanded with K562-aAPC; assay: drug sensitivity score (DSS) (DSS units); higher = more sensitive; extreme values may be limits of the assay; conditions: 72 h; IL-2 2.5 ng/mL
Protocol: as §1

[16] = tested on: DERL-7 (IL-2 2.5 ng/mL); assay: as above; conditions: 72 h
[17] = tested on: IMC-1 (IL-2 20 ng/mL); assay: as above; conditions: 72 h
[18] = tested on: KAI3 (IL-2 2.5 ng/mL); assay: as above; conditions: 72 h
[19] = tested on: KHYG-1 (IL-2 2.5 ng/mL); assay: as above; conditions: 72 h
[20] = tested on: NK-92 (IL-2 2.5 ng/mL); assay: as above; conditions: 72 h
[21] = tested on: NK-YS (IL-2 2.5 ng/mL); assay: as above; conditions: 72 h
[22] = tested on: NKL (IL-2 2.5 ng/mL); assay: as above; conditions: 72 h
[23] = tested on: SNK-6 (IL-2 2.5 ng/mL); assay: as above; conditions: 72 h
[24] = tested on: YT (IL-2 2.5 ng/mL); assay: as above; conditions: 72 h
[25] = tested on: normal primary NK cells, pool 1 (3 donors) (IL-2 2.5 ng/mL); assay: as above; conditions: 72 h
[26] = tested on: normal primary NK cells, pool 1 (3 donors), resting (IL-2 0 ng/mL); assay: as above; conditions: 72 h
[27] = tested on: normal primary NK cells, pool 2 (3 donors) (IL-2 2.5 ng/mL); assay: as above; conditions: 72 h
[28] = tested on: normal primary NK cells, pool 3 (3 donors) (IL-2 2.5 ng/mL); assay: as above; conditions: 72 h

CCN(CC)CCOc1ccc(C(=C(Cl)c2ccccc2)c2ccccc2)cc1 [Clomifene] (max concentration tested 10000 nM)
percent inhibition of viability [%]
Conditions	1 nM	10 nM	100 nM	1000 nM	10000 nM
[1]	-4.27	-4.95	6.21	5.94	49.9
[2]	4.06	0.91	9.39	20.4	79.7
[3]	-0.71	-1.19	4.94	7.46	81.3
[4]	3.86	7.81	10.3	17.6	99.2
[5]	0.74	-4.89	7.01	8.03	98
[6]	-3.93	-4.07	20.1	22.8	99.2
[7]	-0.14	0.6	4.95	5.57	51.9
[8]	9.73	-5.45	18.5	9.46	89.1
[9]	23.4	4.68	23.5	22.9	96.8
[10]	2.71	-4.92	7.54	1.85	97.5
[11]	-14.7	-1.65	-8.5	6.72	89.3
[12]	-1.08	10.5	-7.5	11	90.7
[13]	-3.18	-2.06	-0.72	14.9	80.9
[14]	2.17	1.82	-1.1	13.6	53.4

Conditions	drug sensitivity score
[15]	3.63
[16]	7.34
[17]	5.71
[18]	8.38
[19]	6.7
[20]	8.7
[21]	3.68
[22]	6.51
[23]	8.37
[24]	5.67
[25]	5.98
[26]	6.86
[27]	6.93
[28]	4.97

O=S(=O)(c1cccc2cnccc12)N1CCCNCC1 [Fasudil] (max concentration tested 50000 nM)
percent inhibition of viability [%]
Conditions	5 nM	50 nM	500 nM	5000 nM	50000 nM
[1]	-7	-8.84	-5.88	5.82	20.5
[2]	-1.59	2.77	2.04	10.3	31.5
[3]	-3.69	1.08	-1.1	-3.21	-0.77
[4]	-9.98	-12.1	-8.77	16.4	52.6
[5]	-1.86	-2.81	-0.3	5.17	30.2
[6]	-0.3	-5	-7.96	16.5	50
[7]	-10.2	-12.7	-8.89	-1.5	17.1
[8]	-10.3	-10.6	-5.56	1.78	24
[9]	-14.4	-9.67	-10.4	-26.7	19.7
[10]	-0.42	-0.99	2.43	9.94	50.6
[11]	-14.3	13.1	11.4	15.1	52.8
[12]	-18	5.15	-1.43	5.51	16.6
[13]	-9.61	4.29	4.21	9.95	82.7
[14]	-8.61	9.41	3.96	-0.18	54.6

Conditions	drug sensitivity score
[15]	1.35
[16]	2.67
[17]	0
[18]	5.22
[19]	2.15
[20]	5.03
[21]	0.3
[22]	1.12
[23]	0.22
[24]	4.32
[25]	4.47
[26]	0.88
[27]	6.25
[28]	2.91
